Measurements taken from publication PMC4179164, “Ophiobolin A from Bipolaris oryzae Perturbs Motility and Membrane Integrities of Porcine Sperm and Induces Cell Death on Mammalian Somatic Cell Lines” (Toxins, 2014).
Values after ≈ are worked out from the molar mass of the structure shown.

How the values were obtained:
[1] = test system: boar spermatozoa; conditions: ref 4 (alamethicin, trilongin), 5 (acrebol), 6 (enniatin B); cited from earlier work
[2] = test system: boar spermatozoa; conditions: ref 4 (alamethicin, trilongin), 5 (acrebol), 6 (enniatin B); cited from earlier work; remark: listed apart in the source
[3] = test system: porcine kidney (PK-15) cells; conditions: ref 4 (alamethicin, trilongin), 5 (acrebol), 6 (enniatin B); cited from earlier work
[4] = test system: boar spermatozoa; conditions: ref 4 (alamethicin, trilongin), 5 (acrebol), 6 (enniatin B), cited from earlier work
[5] = test system: boar spermatozoa; conditions: ref 4 (alamethicin, trilongin), 5 (acrebol), 6 (enniatin B); cited from earlier work; remark: listed apart in the source
[6] = test system: boar spermatozoa; conditions: ref 4 (alamethicin), 6 (enniatin B); cited from earlier work
[7] = Mammalian somatic cell toxicity assay calibration (cell line not stated); type: cell-based; conditions: 10 parallel tests, SD ± 3.4, cell line not stated
Method: Cytotoxicity against somatic cells was tested with feline fetus lung cells (FFL) cultivated as described by Andersson et al. and murine neuroblastoma cells (MNA) as described by Kulonen et al. as well as porcine kidney tubular epithelial cell line (PK-15), cultured as reported earlier. All somatic cell lines were maintained in an atmosphere of 95% air, 5% CO2 and 95% relative humidity at 37 °C on RPMI 1640 (complete medium) in a cell culture cabinet (Heracell 150i; Thermo Fisher Scientific, Vantaa, Finland). The detached cells were seeded onto 96 well microtiter plates and exposed to the purified OPA, the final concentration of which ranged from 48.8 ng mL^−1 to 25 μg mL^−1 containing 10 levels in methanol. After incubating the plates for one day at 37 °C, inhibition of cell proliferation was inspected in phase contrast microscope. EC100 for inhibition of proliferation was easy to observe as absence of cell monolayer and absence of intact cells in the well. EC0 was also easy to observe as an intact cell monolayer indistinguishable from the control. In microscope the determining of EC50 was more difficult. […] Then, the plates were analyzed by a microtiter plate reader (Fluoroskan Ascent, Thermo Scientific, Vantaa, Finland) at the excitation and emission wavelengths of 544 nm and 590 nm, respectively. […]

[8] = test system: boar spermatozoa; experiment: Cell membrane permeability assay on motile sperm cells (PI staining); type: cell-based; conditions: boar spermatozoa, motile at 37 °C, 2 h; read-out: Toxic endpoint EC50, Permeability to PI on motile cells
Method: To test the effect of OPA exposure on sperm cells in physiological conditions (swimming at 37 °C) the plasma membrane disruption on motile sperm cells was measured with the viability PI stain, where the loss of plasma membrane integrity was detected as appearance of red color stained nuclei in the damaged cells. In this assay, sperm cells were exposed to OPA at 37 °C and motility of the exposed sperm cells was induced and maintained for 2 h.
Cell membrane permeability assay on motile sperm cells was inspected by staining with PI (Molecular Probes, Eugene, OR, USA) in sperm cells induced to swim by shaking at 37 °C. One hundred and fifty μL aliquots of commercial extended boar semen with a density of 27 × 10^6 sperms mL^−1 were pipetted into microtiter plate wells and serially diluted methanolic solution of OPA were added in the concentration range of 200 ng mL^−1 to 4 μg mL^−1 including 6 levels and an additional methanol blank, and pre-incubated for 2 h on orbital shaker (Innova 5000 new Brunswick Scientific, Enfield, CT, USA) (160 rpm) at 37 °C. Four parallel measurements were done for each dilution. One ml PI solution (1 mg mL^−1 in Dulbeco’s phosphate buffered saline) was mixed with 3 mL of […] Dulbeco’s phosphate buffered saline. One hundred and fifty μL of this stain mixture was added to 150 μL of exposed boar semen. This suspension was incubated for 15 min at 37 °C in dark and measured using a microplate reader (Fluoroskan Ascent, Thermo Scientific, Vantaa, Finland) at excitation and emission wavelengths of 544 nm and 600 nm, respectively. For observing plasma membrane damage by PI staining frozen-thawed semen was used as a positive control (for mortality of 100%) representing the maximal fluorescence emitted by the cells permeable to PI and Dulbeco’s phosphate buffered saline was applied as background control (blank). Loss of viability in the sample was calculated as described in Alm et al.. The frozen sample represented 100% loss of viability. The assay was calibrated with triclosan (Sigma Chemical Co., St. Louis, MO, USA), in 5 parallel tests, the EC50 was 2 μg mL^−1 (SD ± 0.6). Cell membrane permeability assay on static sperm cells at room temperature was carried out by viability staining with PI and calcein-AM (Molecular Probes, Eugene, OR, USA) according to Hoornstra et al. in same concentration range and levels described above.

[9] = test system: boar spermatozoa; experiment: Sperm motility inhibition assay (progressive and rapid motility); type: cell-based; conditions: 24 h, boar spermatozoa, 24 h exposure at room temperature, read-out: Toxic endpoint EC50, Motility inhibition (24 h)
Method: Furthermore, their physiological characters including their motility are influenced mainly by membrane potentials and ion fluxes. Thus, the change of sperm motility is able to sensitively indicate the substances causing mitochondrial membrane depolarization even at sublethal doses, which is undetectable with other cell lines. Motility of the spermatozoa was judged after exposure of 30 min and 24 h at room temperature with minor modification of a previously described method.
The sperm motility inhibition assay was done as reported by Andersson et al.. Commercial boar semen obtained from Figen Oy Finland extended in MR-A (Kubus, S.A., Madrid, Spain) containing 27 × 10^6 spermatozoa·mL^−1 was used. The purified OPA was diluted by serial dilutions in methanol obtaining two ranges of concentrations with 4-4 levels from 2500 μg mL^−1 to 250.0 μg mL^−1 and from 50 μg mL^−1 to 5.0 μg mL^−1, for short and long time exposures, respectively. Twenty μL of each dilution was administered to 2 mL of MR-A-diluted boar semen resulting approximately 100 times dilution of the original stock solutions; 20 μL of methanol was added to spermatozoa in the same way as a blank assay. The samples were incubated for 30 min and 24 h at room temperature for short and long term exposure assays, respectively. After exposure, motility was induced in the sperm cells by incubation in 37 °C for 5 min and shaking to provide the sperm cells with oxygen. […]
The above described subjective motility assay was calibrated with an automatic Hamilton Thorne sperm motility analyzer (HTM-S, ver. 7.2; Hamilton-Thorn Research, Danvers, MA, USA). […] Thus the protocol for assessing sperm tail beating as a measure of motility inhibition gave 99% similarity to measurements of the proportion of rapidly motile spermatozoa done with Hamilton Thorne sperm analyzer (HTM-S, ver. 7.2; Hamilton-Thorn Research, Danvers, MA, USA) Toxicity was expressed as the endpoint concentration of the OPA solution, where the progressive and rapid motility of the sperm cells were <50% of the vehicle exposed sperm cells. […]

| Compound | Toxic endpoint EC50, Dissipation of ΔΨm [1] [µg/mL] | Toxic endpoint EC50, Permeability to PI on static cells [2] [µg/mL] | Toxic endpoint EC50, Cytotoxicity, PK-15 cells [3] [µg/mL] | Toxic endpoint EC50, Motility inhibition (30 min) [4] [µg/mL] | Toxic endpoint EC50, Motility inhibition (24 h) [4] [µg/mL] | Toxic endpoint EC50, Shivering tail beating induction [5] | Toxic endpoint EC50, Permeability to PI on motile cells [6] [µg/mL] | EC50 at 3 days [7] [µg/mL] | EC50 [8] [µg/mL] | EC50 [9] [µg/mL] |
| --- | --- | --- | --- | --- | --- | --- | --- | --- | --- | --- |
| CC(C)[C@H]1C(=O)O[C@H](C(C)C)C(=O)N(C)[C@@H](C(C)C)C(=O)O[C@H](C(C)C)C(=O)N(C)[C@@H](C(C)C)C(=O)O[C@H](C(C)C)C(=O)N1C [Enniatin B] | 5 | >50 | 60 | >10 | 5 | None | >20 | – | – | – |
| Oc1cc(Cl)ccc1Oc1ccc(Cl)cc1Cl [triclosan] | – | – | – | – | – | – | – | 9.4 (≈ 32.5 µM) | 2 (≈ 6.91 µM) | 1 (≈ 3.45 µM) |
| Acrebol | 0.8 | >4 | ≥10 | 2 | 0.1 | None | – | – | – | – |
| Alamethicin | 0.2 | 0.2 | 8 | 1 | 0.2 | None | ≤0.5 | – | – | – |
